Laboratory results as given in patent US20240116985A1, “STAPLED PEPTIDES AND METHODS THEREOF” (priority 2020, published 2024).
≈ marks a conversion by molar mass, not a printed value. Read-outs that look alike come from different tables or passages of the source.

Experiments:
CHI Log D procedure = assay type: physicochemical; conditions: for chromatographic logD: pH 7.4, CHI Log D; for CHI Log D: pH 7.4
[1] = molecular target: T1, full-length beta-Catenin (Uniprot ID P35222) (Homo sapiens, UniProt P35222); test: Fluorescence polarization IC50 (beta-catenin / 5FAM-TCF4 10-53 competition); assay type: binding
T1 construct: 10 nM full-length beta-Catenin (Uniprot ID P35222)
T1 sequence (P35222 1-781): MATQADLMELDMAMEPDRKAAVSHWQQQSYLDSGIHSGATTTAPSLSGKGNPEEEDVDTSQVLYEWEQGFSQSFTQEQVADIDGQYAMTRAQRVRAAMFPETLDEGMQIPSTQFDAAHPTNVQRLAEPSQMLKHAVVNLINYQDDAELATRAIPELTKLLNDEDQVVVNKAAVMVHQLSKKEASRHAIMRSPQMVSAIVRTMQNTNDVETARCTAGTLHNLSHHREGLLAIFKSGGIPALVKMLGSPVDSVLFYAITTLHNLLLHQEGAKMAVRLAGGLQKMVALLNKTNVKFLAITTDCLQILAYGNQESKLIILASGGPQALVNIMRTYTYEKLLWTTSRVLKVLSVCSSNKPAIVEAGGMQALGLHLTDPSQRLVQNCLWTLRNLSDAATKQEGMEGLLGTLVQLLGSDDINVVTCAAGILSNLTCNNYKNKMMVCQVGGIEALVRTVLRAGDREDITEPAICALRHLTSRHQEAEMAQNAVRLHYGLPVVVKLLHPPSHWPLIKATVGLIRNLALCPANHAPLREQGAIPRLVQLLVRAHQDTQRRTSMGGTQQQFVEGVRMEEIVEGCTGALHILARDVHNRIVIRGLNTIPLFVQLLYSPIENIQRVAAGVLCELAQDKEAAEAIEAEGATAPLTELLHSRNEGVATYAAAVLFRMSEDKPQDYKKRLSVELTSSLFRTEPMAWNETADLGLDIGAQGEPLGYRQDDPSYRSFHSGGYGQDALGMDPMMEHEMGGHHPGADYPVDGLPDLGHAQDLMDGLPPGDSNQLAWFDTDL

[2] = molecular target: T2, beta-catenin/TCF4 engagement (Homo sapiens, UniProt P35222); test: Nano-BRET target engagement assay (B-cat-Halo & TCF4-Luc in HEK293 cells); assay type: cell-based; conditions: absolute IC50; read-out: NanoBRET Abs IC50
T2 construct: expressed in transfected cells; host or cells: HEK293
T2 sequence (P35222 1-781): T1 sequence (P35222 1-781)

Solubility in PBS = assay type: physicochemical
How it was run: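 Read-out is the HPLC peak area of the supernatant from ultracentrifuged PBS solution, scaled against a 50 μM peptide DMSO injection; value reported as [(PBS area)/(DMSO area)]*50 uM.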

[3] = fluorescence polarization, read-out: beta-Catenin FP IC50

SMILES	chromatographic logD (CHI Log D procedure)	IC50 [1, 3]	IC50 [2]	Solubility (Solubility in PBS; Solubility (uM))	Solubility (Solubility in PBS)	CHI Log D (CHI Log D procedure)	IC50 ([1]; read-out: FP EC50)
CC[C@H](C)[C@@H]1NC(=O)[C@H](CC(=O)O)NC(=O)[C@]2(CC=CCCCC3(CCCC=CCCCCCC[C@@](C)(C(=O)N[C@@H](Cc4ccccc4)C(=O)N[C@@H](Cc4csc5ccccc45)C(=O)N[C@@H](CCC(N)=O)C(N)=O)NC(=O)[C@H](CCC(N)=O)NC(=O)[C@H](Cc4cccs4)NC(=O)[C@H](C)NC(=O)[C@H](C)NC(=O)[C@H](CCC(=O)O)NC(=O)[C@H](CC(=O)O)NC3=O)NC1=O)CCCN2C(C)=O (stereo partly drawn) [I-485, Ac-PL3-Asp-Ile-B5-Asp-Glu-Ala-Ala-2Thi-Gln-S8-Phe-BztA-Gln-NH2]	2.3	0.034 µM	11.3 µM		50 µM (≈ 94.5 µg/mL)		
CC(=O)N1CCC[C@]12CC=CCCCC1(CCCC=CCCCCCC[C@@](C)(C(=O)N[C@@H](Cc3ccccc3)C(=O)N[C@@H](Cc3csc4ccccc34)C(=O)N[C@@H](Cc3c[nH]cn3)C(N)=O)NC(=O)[C@H](CCC(N)=O)NC(=O)[C@H](Cc3ccccc3)NC(=O)[C@H](C)NC(=O)[C@H](C)NC(=O)[C@H](CCC(=O)O)NC(=O)[C@H](CC(=O)O)NC1=O)NC(=O)[C@H](CC(C)C)NC(=O)[C@H](CC(=O)O)NC2=O (stereo partly drawn) [I-506, Ac-PL3-Asp-Leu-B5-Asp-Glu-Ala-Ala-Phe-Gln-S8-Phe-BztA-His-NH2]	2.41	0.025 µM	8.9 µM		10 µM (≈ 18.9 µg/mL)		
CC[C@H](C)[C@@H]1NC(=O)[C@H](CC(=O)O)NC(=O)[C@]2(CC=CCCCC3(CCCC=CCCCCCC[C@@](C)(C(=O)N[C@@H](Cc4ccccc4OC)C(=O)N[C@@H](Cc4csc5ccccc45)C(=O)N[C@@H](Cc4c[nH]cn4)C(N)=O)NC(=O)[C@H](CC(N)=O)NC(=O)[C@H](Cc4ccccc4)NC(=O)[C@H](C)NC(=O)[C@H](C)NC(=O)[C@H](CCC(=O)O)NC(=O)[C@H](CC(=O)O)NC3=O)NC1=O)CCCN2C(C)=O (stereo partly drawn) [I-512, Ac-PL3-Asp-Ile-B5-Asp-Glu-Ala-Ala-Phe-Asn-S8-2OMeF-BztA-His-NH2]	2.44	0.02 µM	12.3 µM	17 µM (≈ 32.4 µg/mL)			
CC[C@H](C)[C@@H]1NC(=O)[C@H](CC(=O)O)NC(=O)[C@]2(CC=CCCCC3(CCCC=CCCCCCC[C@@](C)(C(=O)N[C@@H](Cc4ccccc4C(N)=O)C(=O)N[C@@H](Cc4csc5ccccc45)C(=O)N[C@@H](Cc4c[nH]cn4)C(N)=O)NC(=O)[C@H](CC(N)=O)NC(=O)[C@H](Cc4ccccc4)NC(=O)[C@H](C)NC(=O)[C@H](C)NC(=O)[C@H](CCC(=O)O)NC(=O)[C@H](CC(=O)O)NC3=O)NC1=O)CCCN2C(C)=O (stereo partly drawn) [I-514, Ac-PL3-Asp-Ile-B5-Asp-Glu-Ala-Ala-Phe-Asn-S8-2CBMF-BztA-His-NH2]	1.91	0.03 µM	> 20 µM		50 µM (≈ 96.1 µg/mL)		
CC[C@H](C)[C@@H]1NC(=O)[C@H](CC(=O)O)NC(=O)[C@]2(CC=CCCCC3(CCCC=CCCCCCC[C@@](C)(C(=O)N[C@@H](Cc4ccsc4)C(=O)N[C@@H](Cc4csc5ccccc45)C(=O)N[C@@H](Cc4c[nH]cn4)C(N)=O)NC(=O)[C@H](CC(N)=O)NC(=O)[C@H](Cc4ccccc4)NC(=O)[C@H](C)NC(=O)[C@H](C)NC(=O)[C@H](CCC(=O)O)NC(=O)[C@H](CC(=O)O)NC3=O)NC1=O)CCCN2C(C)=O (stereo partly drawn) [I-517, Ac-PL3-Asp-Ile-B5-Asp-Glu-Ala-Ala-Phe-Asn-S8-3Thi-BztA-His-NH2]	2.42	0.015 µM	9.7 µM	15 µM (≈ 28.3 µg/mL)			
CC[C@H](C)[C@@H]1NC(=O)[C@H](CC(=O)O)NC(=O)[C@]2(CC=CCCCC3(CCCC=CCCCCCC[C@@](C)(C(=O)N[C@@H](Cc4ccsc4)C(=O)N[C@@H](Cc4csc5ccccc45)C(=O)N[C@@H](CCC(N)=O)C(N)=O)NC(=O)[C@H](CC(N)=O)NC(=O)[C@H](Cc4ccccc4)NC(=O)[C@H](C)NC(=O)[C@H](C)NC(=O)[C@H](CCC(=O)O)NC(=O)[C@H](CC(=O)O)NC3=O)NC1=O)CCCN2C(C)=O (stereo partly drawn) [I-521, Ac-PL3-Asp-Ile-B5-Asp-Glu-Ala-Ala-Phe-Asn-S8-3Thi-BztA-Gln-NH2]		0.023 µM	15.4 µM		50 µM (≈ 93.8 µg/mL)	2.351	0.023 µM
CC(=O)N1CCC[C@]12CC=CCCCC1(CCCC=CCCCCCC[C@@](C)(C(=O)N[C@@H](Cc3ccccc3)C(=O)N[C@@H](Cc3csc4ccccc34)C(=O)N[C@@H](Cc3c[nH]cn3)C(N)=O)NC(=O)[C@H](CC(N)=O)NC(=O)[C@H](Cc3ccccc3)NC(=O)[C@H](C)NC(=O)[C@H](C)NC(=O)[C@H](CCC(=O)O)NC(=O)[C@H](CC(=O)O)NC1=O)NC(=O)[C@H](CC(C)C)NC(=O)[C@H](CC(=O)O)NC2=O (stereo partly drawn) [I-543, Ac-PL3-Asp-Leu-B5-Asp-Glu-Ala-Ala-Phe-Asn-S8-Phe-BztA-His-NH2]	2.47	0.032 µM	17 µM	28 µM (≈ 52.6 µg/mL)			

Next, values leading:

chromatographic logD (CHI Log D procedure)	IC50 [1, 3]	IC50 [2]	Solubility (Solubility in PBS; Solubility (uM))	Solubility (Solubility in PBS)	CHI Log D (CHI Log D procedure)	IC50 ([1]; read-out: FP EC50)	SMILES
2	0.026 µM	17.5 µM	44 µM (≈ 81.7 µg/mL)				COc1ccccc1C[C@H](NC(=O)[C@]1(C)CCCCCCC=CCCCC2(CCCC=CC[C@]3(CCCN3C(C)=O)C(=O)N[C@@H](CC(=O)O)C(=O)N[C@@H](C)C(=O)N2)C(=O)N[C@@H](CC(=O)O)C(=O)N[C@@H](CCC(=O)O)C(=O)N[C@@H](C)C(=O)N[C@@H](C)C(=O)N[C@@H](Cc2ccccc2)C(=O)N[C@@H](CC(N)=O)C(=O)N1)C(=O)N[C@@H](Cc1csc2ccccc12)C(=O)N[C@@H](CCC(N)=O)C(N)=O (stereo partly drawn) [I-437, Ac-PL3-Asp-Ala-B5-Asp-Glu-Ala-Ala-Phe-Asn-S8-2OMeF-BztA-Gln-NH2]
1.76	0.028 µM	> 20 µM	49 µM (≈ 91.6 µg/mL)				CC(=O)N1CCC[C@]12CC=CCCCC1(CCCC=CCCCOC(=O)N3CC[C@@](C(=O)N[C@@H](Cc4ccccc4)C(=O)N[C@@H](Cc4csc5ccccc45)C(=O)N[C@@H](CCC(N)=O)C(N)=O)(C3)NC(=O)[C@H](CC(N)=O)NC(=O)[C@H](Cc3ccccc3)NC(=O)[C@H](C)NC(=O)[C@H](C)NC(=O)[C@H](CCC(=O)O)NC(=O)[C@H](CC(=O)O)NC1=O)NC(=O)[C@H](C)NC(=O)[C@H](CC(=O)O)NC2=O (stereo partly drawn) [I-462, Ac-PL3-Asp-Ala-B5-Asp-Glu-Ala-Ala-Phe-Asn-PyrS2-Phe-BztA-Gln-NH2]
	0.033 µM	28.8 µM		50 µM (≈ 91.7 µg/mL)	2.004	0.033 µM	CC(=O)N1CCC[C@]12CC=CCCCC1(CCCC=CCCCCCC[C@@](C)(C(=O)N[C@@H](Cc3ccsc3)C(=O)N[C@@H](Cc3csc4ccccc34)C(=O)N[C@@H](CCC(N)=O)C(N)=O)NC(=O)[C@H](CC(N)=O)NC(=O)[C@H](Cc3ccccc3)NC(=O)[C@H](C)NC(=O)[C@H](C)NC(=O)[C@H](CCC(=O)O)NC(=O)[C@H](CC(=O)O)NC1=O)NC(=O)[C@H](C)NC(=O)[C@H](CC(=O)O)NC2=O (stereo partly drawn) [I-519, Ac-PL3-Asp-Ala-B5-Asp-Glu-Ala-Ala-Phe-Asn-S8-3Thi-BztA-Gln-NH2]
2.48	0.024 µM	4.6 µM	48 µM (≈ 91.1 µg/mL)				CC(=O)N1CCC[C@]12CC=CCCCC1(CCCC=CCCCCCC[C@@](C)(C(=O)N[C@@H](Cc3ccccc3)C(=O)N[C@@H](Cc3csc4ccccc34)C(=O)N[C@@H](CCC(N)=O)C(N)=O)NC(=O)[C@H](CCC(N)=O)NC(=O)[C@H](Cc3ccccc3)NC(=O)[C@H](C)NC(=O)[C@H](C)NC(=O)[C@H](CCC(=O)O)NC(=O)[C@H](CC(=O)O)NC1=O)NC(=O)[C@H](CC(C)(C)C)NC(=O)[C@H](CC(=O)O)NC2=O (stereo partly drawn) [I-544, Ac-PL3-Asp-Npg-B5-Asp-Glu-Ala-Ala-Phe-Gln-S8-Phe-BztA-Gln-NH2]
